Assay results published in article PMC12856912, “Structure-Guided Semisynthesis of Blasticidin S–Amicetin Chimeras as Selective Ribosome Inhibitors” (Journal of the American Chemical Society, 2026).
Values after ≈ are worked out from the molar mass of the structure shown.

Experiments:
Format in all cases: cell-based
[1] = test system: Methicillin resistant Staphylococcus epidermidis (MRSE) ATCC 35984 NRS101; test: Antibacterial MIC assay, serial dilution; conditions: for Selectivity index (CC50/MIC) MRSE 35984: CC50 Vero cells / MIC; for MIC: Staphylococcus epidermidis, read-out: MIC Methicillin resistant Staphylococcus epidermidis (MRSE) ATCC 35984 NRS101
[2] = test system: Enterococcus faecalis ATCC 29212; test: Antibacterial MIC assay, serial dilution; conditions: for Selectivity index (CC50/MIC) E. faecalis 29212: CC50 Vero cells / MIC; for MIC: Enterococcus faecalis, ATCC 29112 / ATCC 29212, 24 h, read-out: MIC E. faecalis ATCC 29112
[3] = test system: Klebsiella pneumoniae ATCC 29665; test: Antibacterial MIC assay, serial dilution; conditions: for MIC: Klebsiella pneumoniae, ATCC29665, range from biological replicates, read-out: MIC K. pneumoniae ATCC-29665
Procedure, shortened: (§1)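 Broth microdilution in cation-adjusted Mueller-Hinton broth, inoculum diluted to OD600 0.004 from cultures grown to OD600 ~0.5; compounds tested at final 128–1 μg/mL. Plates incubated at 37 °C for 16–18 h, 24 h for VRE. MIC was the lowest concentration giving >90% growth inhibition by OD600.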

[4] = test system: Vancomycin resistant Enterococcus faecium NR-31909 (VRE); test: Antibacterial MIC assay, serial dilution; conditions: for Selectivity index (CC50/MIC) VRE NR-31909: CC50 Vero cells / MIC; for MIC: Enterococcus faecium, VRE, 24 h, read-out: MIC Vancomycin resistant Enterococcus faecium NR-31909 (VRE)
Procedure, shortened: as §1

[5] = test system: Escherichia coli BAA-2452; test: Antibacterial MIC assay, serial dilution; conditions: BAA2452, read-out: MIC Escherichia coli BAA-2452
[6] = Cytotoxicity assay (MTS/PMS); conditions: monkey, Vero cells (monkey kidney epithelial cells); 24 h treatment, MTS/PMS, average of three biological replicates; read-out: CC50 against Vero cells
Procedure, shortened: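 Vero cells were allowed to adhere for 24 h in DMEM with 10% FBS at 37 °C, then exposed to serial compound dilutions for 24 h. Viability was measured by MTS/PMS (4 h, absorbance at 490 nm) and normalized to vehicle. CC50 is the concentration giving 50% viability, averaged over three biological replicates.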

Structure (SMILES)	Selectivity index (CC50/MIC) MRSE 35984 [1]	MIC [1] [µg/mL]	Selectivity index (CC50/MIC) E. faecalis 29212 [2]	MIC [2] [µg/mL]	MIC [3] [µg/mL]	Selectivity index (CC50/MIC) VRE NR-31909 [4]	MIC [4] [µg/mL]	MIC [5] [µg/mL]	CC50 at 24 h [6] [µg/mL]	Selectivity index (CC50/MIC) K. pneumoniae ([3]; CC50 Vero cells / MIC)
CNc1ccc(C(=O)Nc2ccn([C@H]3C=C[C@H](NC(=O)C[C@@H](N)CCN(C)C(=N)N)[C@@H](C(=O)NCCc4ccccc4)O3)c(=O)n2)cc1 [Blastimidine P3]	>32	8 (≈ 12.1 µM)	>24	8 to 16 (≈ 12.1 to 24.3 µM)	> 128	>2.0	128 (≈ 194 µM)	64 (≈ 97.2 µM)	> 256	
CN(CC[C@H](N)CC(=O)N[C@H]1C=C[C@H](n2ccc(NC(=O)c3ccc(NC(=O)[C@@](C)(N)CO)cc3)nc2=O)O[C@@H]1C(=O)NCCc1ccccc1)C(=N)N [Blastimidine P5]	>16	16 (≈ 21.5 µM)	>8.0	32 (≈ 42.9 µM)	64 to 128 (≈ 85.8 to 172 µM)	>11	16 to 32 (≈ 21.5 to 42.9 µM)	128 (≈ 172 µM)	> 256	>3.0
